Reference: PubChem BioAssay (NCI)
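Five concentrations, 48 hours, 96-well plates. Here, GI50 denotes the concentration required for 50% inhibition of growth. TGI marks complete inhibition of growth.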

Experiments:
Experiment in all cases: growth of human tumour cells (NCI), 48 h
SK-MEL-28 melanoma = test system: SK-MEL-28 melanoma
SK-MEL-5 melanoma = test system: SK-MEL-5 melanoma
PC-3 prostate = test system: PC-3 prostate
HOP-62 NSCLC = test system: HOP-62 NSCLC
NCI-H23 lung = test system: NCI-H23 lung
IGROV1 ovarian = test system: IGROV1 ovarian
OVCAR-4 ovarian = test system: OVCAR-4 ovarian
K-562 leukemia = test system: K-562 leukemia
NCI-H522 lung = test system: NCI-H522 lung
HT29 colon = test system: HT29 colon
A549 NSCLC = test system: A549 NSCLC
SR leukemia = test system: SR leukemia
SNB-19 CNS = test system: SNB-19 CNS
HCC-2998 colon = test system: HCC-2998 colon
SN12C renal = test system: SN12C renal
OVCAR-3 ovarian = test system: OVCAR-3 ovarian

Structure (SMILES) | GI50 (SK-MEL-28 melanoma) [µM] | TGI (SK-MEL-28 melanoma) [µM] | GI50 (SK-MEL-5 melanoma) [µM] | TGI (SK-MEL-5 melanoma) [µM] | GI50 (PC-3 prostate) [µM] | TGI (PC-3 prostate) [µM] | GI50 (HOP-62 NSCLC) [µM] | TGI (HOP-62 NSCLC) [µM] | TGI (NCI-H23 lung) [µM] | TGI (IGROV1 ovarian) [µM] | TGI (OVCAR-4 ovarian) [µM] | TGI (K-562 leukemia) [µM] | TGI (NCI-H522 lung) [µM] | TGI (HT29 colon) [µM] | TGI (A549 NSCLC) [µM] | TGI (SR leukemia) [µM] | TGI (SNB-19 CNS) [µM] | TGI (HCC-2998 colon) [µM] | TGI (SN12C renal) [µM] | TGI (OVCAR-3 ovarian) [µM]
Cc1cc(Nc2ccc(Cl)cc2)nc(NCCCNc2ccnc3cc(Cl)ccc23)n1 | 1.81 | 3.31 | 1.57 | 2.91 | 1.65 | 3.18 | 1.53 | 3.07 |  |  |  |  |  |  |  |  |  |  |  | 
NC(Cc1ccccc1CP(=O)(O)O)C(=O)O (stereo not drawn) |  | > 100 |  | > 100 |  | > 100 |  |  | > 100 | > 100 | > 100 | > 100 | > 100 | > 100 | > 100 | > 100 | > 100 | > 100 | > 100 | > 100
